Measurements: article PMC5983452 (PLoS ONE, 2018)
Counter-ions that a name gives are not always drawn.

What was measured:
[1] = assay type: in vitro ADME; conditions: plasma
Description: After stirred for 30 min at 25 °C, NaBH3CN […]
mixture was concentrated under vacuum. […] The combined organic […]
The crude product was further
The fractions containing product were combined and concentrated. […]
cyclopropylisoxazole-3-carboxamide hydrochloride as a light yellow solid.
Media was changed every two or three days. On
95% at 37°C. […] Cells were
At 120 min the companion plate was
Permeability was assessed in duplicate, on two […]
different occasions. […] Compounds were quantified by LC-MS/MS analysis using a 5 point calibration curve.
The permeability coefficient
Solutions of test compounds (1 µM, 0.5% final
Incubations were performed in
Haloperidol was incubated in parallel as the control compound for each species.
(7 points) and protein containing solutions (6 points).
Liver microsome (LM) stability. […]
the reaction. The final incubation volume was 50 µL. Negative control incubations were included where phosphate buffer was […]
min. The negative controls were incubated for 45 min only. […]
µL methanol at the appropriate time points.
Subsequently, intrinsic CL (CLint) was […]

[2] = in vitro; assay type: in vitro ADME, CD-1 mice; conditions: male, CD-1, mouse, microsomes, pH 7.4
[3] = in vitro; assay type: in vitro ADME, cyno-monkeys; conditions: male, monkey, microsomes, pH 7.4
[4] = in vitro; assay type: in vitro ADME, humans
[5] = system: panel of 140 cell lines grown in matrigel; test: cells; conditions: read-out: growth effects in panel of 140 cell lines grown in matrigel (none observed up to)
[6] = in vitro; conditions: human
Description: (§1) Caco-2 permeability. Caco-2 cells (obtained from the ATCC), between passage numbers 40 to 60, were seeded onto Millipore
(§2) Multiscreen plates at 1x10^5 cells/cm2 in Dulbecco's Modified Eagle Medium. Media was changed every two or three days. On
(§3) Day 20, the permeability study was performed using Hanks Balanced Salt Solution (HBSS) pH 7.4 buffer with 25 mM HEPES and
(§4) Incubations were carried out in an atmosphere of 5% CO2 with a relative humidity of
(§5) The monolayers were prepared by rinsing both basolateral and apical surfaces twice with HBSS at 37°C. Cells were
then incubated with HBSS in both apical and basolateral compartments for 40 min to stabilize physiological parameters. HBSS
was then removed from the apical or basolateral compartment and replaced with 10 µM test compound dosing solutions (1% final
DMSO). The pH of supplemented HBSS was 6.5 and 7.5 in the apical and basolateral compartments, respectively. The apical
compartment inserts were then placed into ‘companion’ plates containing fresh HBSS.
(§6) removed and apical and basolateral samples diluted for analysis by LC-MS/MS. Permeability was assessed in duplicate, on two
different occasions. On each plate atenolol and propanolol were run as controls. Compounds were quantified by LC-MS/MS analysis using a 5 point calibration curve. The starting concentration (C0) was determined from the dosing solution and
experimental recovery calculated from C0 and both apical and basolateral compartment concentrations. The permeability coefficient
(Papp) for each compound was calculated as: (dQ/dt)/(C0xA), where dQ/dt is the rate of permeation of the drug across the cells, C0
is the donor compartment concentration at time zero and A is the area of the cell monolayer.
Plasma protein binding. Plasma protein binding was assessed by equilibrium dialysis utilizing the HT-dialysis cell format with a
cellulose semi-permeable membrane (molecular weight cut-off of 5000 Da). Solutions of test compounds (1 µM, 0.5% final
DMSO concentration) were prepared in isotonic phosphate buffer (pH 7.4) and 100% pooled male CD-1 mouse plasma. The
buffer solution was added to one side of the membrane and the plasma solution to the other side. Incubations were performed in
Haloperidol was incubated in parallel as the control compound for each species. At the end of the incubation time, samples were taken from both sides of the membrane.
Following protein precipitation, the samples were analyzed by LC-MS/MS using two sets of calibration standards for protein free
(7 points) and protein containing solutions (6 points). Samples were quantified using standard curves prepared in the equivalent
matrix. The fraction unbound in plasma (fu) was calculated using the following equation:
Where, PC = sample concentration in protein containing side, PF = sample concentration in protein free side, and VCorrection =
correction factor for the volume shift i.e. ratio of the volume of the protein after dialysis to that before dialysis.

[7] = in vitro; conditions: male, CD-1, mouse, plasma, pH 7.4
Description: as §1, §2, §3, §4, §5
(§7) then incubated with HBSS in both apical and basolateral compartments for 40 min to stabilize physiological parameters. HBSS […]
as §6
(§8) different occasions. […] Compounds were quantified by LC-MS/MS analysis using a 5 point calibration curve. The starting concentration (C0) was determined from the dosing solution and
(§9) experimental recovery calculated from C0 and both apical and basolateral compartment concentrations. […]
(§10) (Papp) for each compound was calculated as: (dQ/dt)/(C0xA), where dQ/dt is the rate of permeation of the drug across the cells, C0 […]
(§11) Plasma protein binding. Plasma protein binding was assessed by equilibrium dialysis utilizing the HT-dialysis cell format with a […]

[8] = system: lung cancer cell lines; conditions: read-out: impact on proliferation of NSCLC and other lung cancer cell lines (none at concentrations as high as)
[9] = Plasma protein binding (equilibrium dialysis), mouse; conditions: male, CD-1, mouse, pH 7.4
Description: as §1, §2, §3, §4, §5, §7, §6, §8, §9, §10, §11

[10] = Plasma protein binding (equilibrium dialysis), human; conditions: pH 7.4, Human fu (unbound fraction)
Description: as §1, §2, §3, §4, §5, §7, §6, §8, §9, §10, §11

[11] = target: SMYD2 (Homo sapiens, UniProt Q9NRG4); test: Intracellular BTF3 monomethylation (BTF3me1) western blot; assay type: cell-based; parameters: endogenous in cells; host or cells: 313 cancer cell lines; conditions: read-out: Intracellular Methylation IC50
Sequence of SMYD2 (Q9NRG4 whole entry): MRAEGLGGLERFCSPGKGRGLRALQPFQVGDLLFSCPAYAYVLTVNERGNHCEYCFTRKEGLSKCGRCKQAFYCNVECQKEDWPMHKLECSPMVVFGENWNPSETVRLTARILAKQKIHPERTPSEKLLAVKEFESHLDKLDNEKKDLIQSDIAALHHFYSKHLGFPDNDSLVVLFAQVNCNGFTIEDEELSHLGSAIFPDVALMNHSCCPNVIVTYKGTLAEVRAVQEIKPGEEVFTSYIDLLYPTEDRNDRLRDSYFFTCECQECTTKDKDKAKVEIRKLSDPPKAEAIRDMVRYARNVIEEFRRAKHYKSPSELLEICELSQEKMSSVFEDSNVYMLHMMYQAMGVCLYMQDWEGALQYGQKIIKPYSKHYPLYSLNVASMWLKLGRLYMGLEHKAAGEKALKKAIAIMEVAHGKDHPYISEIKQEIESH
Description: Cells were lysed in 1X RIPA Buffer containing 10% SDS and Halt™ Protease Inhibitor Cocktail (Thermo Fisher Scientific) and incubated on ice for 30 minutes before sonication (Amplitude 20%/10sec) twice. Lysates were spun at […] at 4°C for 10min and normalized for protein concentration by BCA assay (Thermo Fisher Scientific). […] Blots were imaged using the Odyssey Imaging System (LICOR Biosciences). […] BTF3me1 is a custom generated polyclonal antibody, affinity purified from serum of rabbits injected with adjuvant conjugated peptide corresponding to methylated K1 of BTF3 (K(Me)-[…]).
SMYD2 catalyzes the methylation of lysine residues on several proteins, including BTF3 [40].

With `NC1CCC(S(=O)(=O)N2C3CCC2CC(NC(=O)c2cc(C4CC4)on2)C3)CC1` [EPZ028862, N-((1R,3R,5S)-8-((1r,4R)-4-aminocyclohexylsulfonyl)-8-aza-bicyclo[3.2.1]octan-3-yl)-5-cyclopropylisoxazole-3-carboxamide hydrochloride] the “Monkey fu (unbound fraction)” value [1] was “highly bound”, the microsomal CLint at 1 µM [2] was 3.3 µL/min/mg and the microsomal CLint at 1 µM [3] was 3.2 µL/min/mg. The microsomal CLint at 1 µM ([4]; both sexes, human, microsomes, pH 7.4, CLint measured with liver microsomes) was under 3 µL/min/mg, the “CLint measured with liver microsomes, Human” value ([4]; both, 1 µM, pH 7.4) was 3.3 µL/min/mg microsomal protein and the IC50 [5] was over 25 µM. For the same molecule, the Papp A→B at 120 min, 10 µM ([6]; Caco-2, Papp,AB) was 0.46 ×10⁻⁶ cm/s, the Papp B→A at 120 min, 10 µM ([6]; Caco-2, Papp,BA) was 16.4 ×10⁻⁶ cm/s and the fraction unbound at 16 h, 1 µM [7] was 0.51. The IC50 [8] was over 25 µM.
In the case of `O=C(NC1CN(Cc2cnn(Cc3ccc(Cl)cc3)c2)C1)c1cn(C2CC2)nn1` [EPZ033294], the fraction unbound at 16 h, 1 µM [9] is reported as 0.26, the fraction unbound at 16 h, 1 µM [10] is reported as 0.13 and the IC50 [11] is reported as 0.0029 µM.
